For assay [1], the target named is T1, 11β-hydroxysteroid dehydrogenase type 1 (murine 11βHSD1, m11βHSD1) (Mus musculus, UniProt P50172).
T1 construct: gene Hsd11b1; truncated form of recombinant m11βHSD1 protein (N23Δ)
Put plainly: competitive inhibition of 11-DHC reduction by recombinant enzyme (Dixon plot, HPLC); also itself reduced as a poor substrate (Km […]). Format: biochemical.

The target of assay [2] is T1, 11β-hydroxysteroid dehydrogenase type 1 (murine 11βHSD1, m11βHSD1). Kind of assay: competitive inhibition of corticosterone oxidation by recombinant enzyme (Dixon plot, HPLC); also itself oxidised as a poor substrate (Km […]). Format: biochemical.

T1 sequence (P50172 24-292): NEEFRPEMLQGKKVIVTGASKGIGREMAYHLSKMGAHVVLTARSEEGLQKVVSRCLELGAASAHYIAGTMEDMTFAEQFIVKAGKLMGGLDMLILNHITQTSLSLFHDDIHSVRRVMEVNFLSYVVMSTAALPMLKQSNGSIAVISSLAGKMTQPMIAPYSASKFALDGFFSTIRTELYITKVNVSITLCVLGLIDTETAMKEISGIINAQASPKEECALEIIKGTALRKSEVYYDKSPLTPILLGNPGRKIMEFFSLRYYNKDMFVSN

Consider `CC(C)CCC[C@@H](C)[C@H]1CC[C@H]2[C@@H]3C(=O)C=C4C[C@@H](O)CC[C@]4(C)[C@H]3CC[C@]12C` [7KC, 7-ketocholesterol], for which the Ki in assay [1] came to 7.33 ± 1.76 µM.
For the compound `CC(C)CCC[C@@H](C)[C@H]1CC[C@H]2[C@@H]3[C@@H](O)C=C4C[C@@H](O)CC[C@]4(C)[C@H]3CC[C@]12C` [7βOHC, 7β-hydroxycholesterol], the Ki in assay [2] stood at 0.91 ± 0.05 µM.

Usually Ki stands for the dissociation constant of the complex between target and ligand, obtained from inhibition or displacement.

(Values after PMC3694296, “11β-Hydroxysteroid dehydrogenase type 1 contributes to the balance between 7-keto- and 7-hydroxy-oxysterols in vivo” (Biochemical Pharmacology, 2013).)
